According to ChEMBL document CHEMBL1201862, “PubChem BioAssay data set” (2004):
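Each compound was tested at five concentrations against cells in 96-well plates for 48 hours. GI50 = concentration required for 50% inhibition of growth.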 Calls of active or inactive are those of the source. No stated cut-off is given here; in the data, active = GI50 up to about 1.1 µM and inactive = higher.

Assays:
Assay in all cases: DTP human tumour cell line panel, 48 h
786-0 = test system: 786-0
A498 = test system: A498
A549 = test system: A549
ACHN = test system: ACHN
CAKI-1 = test system: CAKI-1
CCRF-CEM = test system: CCRF-CEM
COLO 205 = test system: COLO 205
DLD-1 = test system: DLD-1
DMS-114 = test system: DMS-114
DMS-273 = test system: DMS-273
HCC 2998 = test system: HCC 2998
HCT-116 = test system: HCT-116
HCT-15 = test system: HCT-15
HL-60 = test system: HL-60
HOP-18 = test system: HOP-18
HOP-62 = test system: HOP-62
HT-29 = test system: HT-29
IGROV-1 = test system: IGROV-1
K562 = test system: K562
KM-20L2 = test system: KM-20L2
KM12 = test system: KM12
LOX IMVI = test system: LOX IMVI
LXFL 529 = test system: LXFL 529
M14 = test system: M14
M19-MEL = test system: M19-MEL
MOLT-4 = test system: MOLT-4
Malme-3M = test system: Malme-3M
NCI-H226 = test system: NCI-H226
NCI-H23 = test system: NCI-H23
NCI-H460 = test system: NCI-H460
NCI-H522 = test system: NCI-H522
OVCAR-3 = test system: OVCAR-3
OVCAR-4 = test system: OVCAR-4
OVCAR-5 = test system: OVCAR-5
OVCAR-8 = test system: OVCAR-8
RPMI-8226 = test system: RPMI-8226
RXF 393 = test system: RXF 393
SF-268 = test system: SF-268
SF-295 = test system: SF-295
SF-539 = test system: SF-539
SK-MEL-28 = test system: SK-MEL-28
SK-MEL-2 = test system: SK-MEL-2
SK-MEL-5 = test system: SK-MEL-5
SK-OV-3 = test system: SK-OV-3
SN12C = test system: SN12C
SNB-19 = test system: SNB-19
SNB-75 = test system: SNB-75
SNB-78 = test system: SNB-78
SW-620 = test system: SW-620
TK-10 = test system: TK-10
U-251 = test system: U-251
UACC-257 = test system: UACC-257
UACC-62 = test system: UACC-62
UO-31 = test system: UO-31
BT-549 = test system: BT-549
DU-145 = test system: DU-145
EKVX = test system: EKVX
HOP-92 = test system: HOP-92
Hs-578T = test system: Hs-578T
MCF7 = test system: MCF7
MDA-MB-231 = test system: MDA-MB-231
MDA-MB-435 = test system: MDA-MB-435
MDA-N = test system: MDA-N
NCI/ADR-RES = test system: NCI/ADR-RES
PC-3 = test system: PC-3
SR = test system: SR
T47D = test system: T47D

SMILES: COc1cccc(NC(=O)CSc2nnc(Cc3ccccc3)o2)c1
- GI50 (786-0): > 100 µM (inactive)
- GI50 (A498): > 100 µM (inactive)
- GI50 (A549): > 100 µM (inactive)
- GI50 (ACHN): 23.3 µM (inactive)
- GI50 (CAKI-1): > 100 µM (inactive)
- GI50 (CCRF-CEM): > 100 µM (inactive)
- GI50 (COLO 205): > 100 µM (inactive)
- GI50 (DLD-1): > 100 µM (inactive)
- GI50 (DMS-114): > 100 µM (inactive)
- GI50 (DMS-273): > 100 µM (inactive)
- GI50 (HCC 2998): > 100 µM (inactive)
- GI50 (HCT-116): > 100 µM (inactive)
- GI50 (HCT-15): > 100 µM
- GI50 (HL-60): 54.3 µM (inactive)
- GI50 (HOP-18): > 100 µM (inactive)
- GI50 (HOP-62): > 100 µM (inactive)
- GI50 (HT-29): > 100 µM (inactive)
- GI50 (IGROV-1): > 100 µM (inactive)
- GI50 (K562): > 100 µM (inactive)
- GI50 (KM-20L2): > 100 µM (inactive)
- GI50 (KM12): > 100 µM (inactive)
- GI50 (LOX IMVI): > 100 µM (inactive)
- GI50 (LXFL 529): > 100 µM (inactive)
- GI50 (M14): > 100 µM (inactive)
- GI50 (M19-MEL): > 100 µM (inactive)
- GI50 (MOLT-4): > 100 µM (inactive)
- GI50 (Malme-3M): > 100 µM (inactive)
- GI50 (NCI-H226): > 100 µM (inactive)
- GI50 (NCI-H23): > 100 µM (inactive)
- GI50 (NCI-H460): > 100 µM (inactive)
- GI50 (NCI-H522): > 100 µM (inactive)
- GI50 (OVCAR-3): > 100 µM (inactive)
- GI50 (OVCAR-4): > 100 µM (inactive)
- GI50 (OVCAR-5): > 100 µM (inactive)
- GI50 (OVCAR-8): > 100 µM (inactive)
- GI50 (RPMI-8226): > 100 µM (inactive)
- GI50 (RXF 393): > 100 µM (inactive)
- GI50 (SF-268): > 100 µM (inactive)
- GI50 (SF-295): > 100 µM (inactive)
- GI50 (SF-539): > 100 µM (inactive)
- GI50 (SK-MEL-28): > 100 µM (inactive)
- GI50 (SK-MEL-2): > 100 µM (inactive)
- GI50 (SK-MEL-5): 57 µM (inactive)
- GI50 (SK-OV-3): > 100 µM (inactive)
- GI50 (SN12C): > 100 µM (inactive)
- GI50 (SNB-19): > 100 µM (inactive)
- GI50 (SNB-75): 51.8 µM (inactive)
- GI50 (SNB-78): > 100 µM (inactive)
- GI50 (SW-620): > 100 µM (inactive)
- GI50 (TK-10): > 100 µM (inactive)
- GI50 (U-251): > 100 µM (inactive)
- GI50 (UACC-257): > 100 µM (inactive)
- GI50 (UACC-62): > 100 µM (inactive)
- GI50 (UO-31): > 100 µM (inactive)

SMILES: O=c1nc(N2CCNCC2)oc2cc(Cl)oc(=O)c12
- GI50 (786-0): 3.34 µM (inactive)
- GI50 (A498): 20.8 µM (inactive)
- GI50 (A549): 7.52 µM (inactive)
- GI50 (ACHN): 6.87 µM (inactive)
- GI50 (BT-549): 0.716 µM (active)
- GI50 (CAKI-1): 2.59 µM (inactive)
- GI50 (CCRF-CEM): 1.83 µM (inactive)
- GI50 (COLO 205): 2.9 µM (inactive)
- GI50 (DU-145): 5.5 µM (inactive)
- GI50 (EKVX): 6.28 µM (inactive)
- GI50 (HCC 2998): 11.1 µM (inactive)
- GI50 (HCT-116): 2.43 µM (inactive)
- GI50 (HCT-15): 3.25 µM
- GI50 (HL-60): 1.9 µM (inactive)
- GI50 (HOP-62): 4.69 µM (inactive)
- GI50 (HOP-92): 3.94 µM (inactive)
- GI50 (HT-29): 3.91 µM (inactive)
- GI50 (Hs-578T): 1.94 µM (inactive)
- GI50 (IGROV-1): 2.7 µM (inactive)
- GI50 (K562): 2.55 µM (inactive)
- GI50 (KM12): 5.96 µM (inactive)
- GI50 (LOX IMVI): 2.06 µM (inactive)
- GI50 (M14): 2.45 µM (inactive)
- GI50 (MCF7): 3.98 µM (inactive)
- GI50 (MDA-MB-231): 12.1 µM (inactive)
- GI50 (MDA-MB-435): 4.44 µM (inactive)
- GI50 (MDA-N): 2.2 µM (inactive)
- GI50 (MOLT-4): 1.76 µM (inactive)
- GI50 (Malme-3M): 3.93 µM (inactive)
- GI50 (NCI-H226): 15.4 µM (inactive)
- GI50 (NCI-H23): 7.24 µM (inactive)
- GI50 (NCI-H460): 6.98 µM (inactive)
- GI50 (NCI-H522): 1.7 µM (inactive)
- GI50 (NCI/ADR-RES): 6.47 µM (inactive)
- GI50 (OVCAR-3): 4.06 µM (inactive)
- GI50 (OVCAR-4): 5.45 µM (inactive)
- GI50 (OVCAR-5): 15.5 µM (inactive)
- GI50 (OVCAR-8): 2 µM (inactive)
- GI50 (PC-3): 6.49 µM (inactive)
- GI50 (RPMI-8226): 1.67 µM (inactive)
- GI50 (RXF 393): 9.1 µM (inactive)
- GI50 (SF-268): 3.89 µM (inactive)
- GI50 (SF-295): 7.13 µM (inactive)
- GI50 (SF-539): 2.25 µM (inactive)
- GI50 (SK-MEL-28): 3.13 µM (inactive)
- GI50 (SK-MEL-2): 8.49 µM (inactive)
- GI50 (SK-MEL-5): 3.14 µM (inactive)
- GI50 (SK-OV-3): 12.3 µM (inactive)
- GI50 (SN12C): 6.11 µM (inactive)
- GI50 (SNB-19): 15.4 µM (inactive)
- GI50 (SNB-75): 3.7 µM (inactive)
- GI50 (SR): 1.65 µM (inactive)
- GI50 (SW-620): 2.26 µM (inactive)
- GI50 (T47D): 2.79 µM (inactive)
- GI50 (TK-10): 9.02 µM (inactive)
- GI50 (U-251): 3.91 µM (inactive)
- GI50 (UACC-257): 7.57 µM (inactive)
- GI50 (UACC-62): 7.67 µM (inactive)
- GI50 (UO-31): 7.67 µM (inactive)
